Activity calls are given as the source filed them.
Columns and labels:
[1] = molecular target: T1, Apoptotic protease-activating factor 1 (Homo sapiens, UniProt O14727); test: SAR analysis of small molecule inhibitors of Apaf-1 in a Fluorescent assay.; format: functional; conditions: read-out: IC50_Mean
T1 sequence (O14727 whole entry): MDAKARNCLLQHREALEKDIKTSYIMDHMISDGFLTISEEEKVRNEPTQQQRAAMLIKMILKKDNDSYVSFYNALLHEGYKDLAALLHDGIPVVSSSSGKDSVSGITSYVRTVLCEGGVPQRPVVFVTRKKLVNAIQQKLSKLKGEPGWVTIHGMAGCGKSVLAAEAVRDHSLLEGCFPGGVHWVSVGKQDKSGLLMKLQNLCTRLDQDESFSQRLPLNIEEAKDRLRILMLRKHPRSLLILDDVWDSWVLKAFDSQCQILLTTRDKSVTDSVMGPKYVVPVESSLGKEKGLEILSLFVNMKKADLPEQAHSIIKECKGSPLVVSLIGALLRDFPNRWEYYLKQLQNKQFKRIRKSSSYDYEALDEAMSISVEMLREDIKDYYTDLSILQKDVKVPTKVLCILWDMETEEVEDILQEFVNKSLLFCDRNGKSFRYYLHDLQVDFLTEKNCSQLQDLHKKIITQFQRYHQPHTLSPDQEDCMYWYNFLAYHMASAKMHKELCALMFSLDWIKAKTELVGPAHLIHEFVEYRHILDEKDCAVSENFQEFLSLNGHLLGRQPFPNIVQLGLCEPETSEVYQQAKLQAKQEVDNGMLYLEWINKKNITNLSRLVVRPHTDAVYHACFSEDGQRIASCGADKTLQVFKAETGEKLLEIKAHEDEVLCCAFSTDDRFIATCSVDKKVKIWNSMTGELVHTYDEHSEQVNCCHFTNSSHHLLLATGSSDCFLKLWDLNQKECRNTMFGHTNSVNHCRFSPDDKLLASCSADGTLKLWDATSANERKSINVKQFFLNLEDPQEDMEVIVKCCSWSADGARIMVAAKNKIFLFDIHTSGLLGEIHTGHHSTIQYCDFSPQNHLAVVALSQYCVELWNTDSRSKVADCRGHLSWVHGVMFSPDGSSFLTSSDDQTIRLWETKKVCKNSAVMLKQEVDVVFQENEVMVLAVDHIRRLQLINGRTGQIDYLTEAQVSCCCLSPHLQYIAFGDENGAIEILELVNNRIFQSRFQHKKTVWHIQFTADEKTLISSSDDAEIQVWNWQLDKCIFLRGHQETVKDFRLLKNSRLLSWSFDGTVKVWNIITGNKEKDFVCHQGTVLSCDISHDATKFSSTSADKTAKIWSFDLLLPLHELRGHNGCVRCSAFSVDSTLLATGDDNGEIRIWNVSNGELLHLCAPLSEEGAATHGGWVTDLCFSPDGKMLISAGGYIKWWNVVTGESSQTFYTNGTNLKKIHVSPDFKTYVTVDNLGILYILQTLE

Interleukin-8 [2] = molecular target: T2, Interleukin-8 (Homo sapiens, UniProt P10145); test: Dose Response confirmation of uHTS small molecule hits for cystic fibrosis induced NFkb Inhibitors in a PAF-induced IL8 counterscreen.; format: functional; conditions: read-out: IC50_Mean
Interleukin-8 [3] = molecular target: T2, Interleukin-8; test: Dose Response confirmation of uHTS small molecule hits for cystic fibrosis induced NFkb Inhibitors in a TNFa-induced IL8 counterscreen.; format: functional; conditions: read-out: IC50_Mean
[4] = molecular target: T3, ATP-dependent translocase ABCB1 (Homo sapiens, UniProt P08183); test: inhibition of BCRP-mediated JC-1 efflux – Ig-MXP3 cells, flow cytometry, set 2, dose response (AID 504566); format: functional; conditions: read-out: EC50_MICROM_;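 further: flow cytometry median green fluorescence of retained JC-1 dye; potency of efflux pump inhibition measured as rising substrate retention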
[5] = molecular target: T3, ATP-dependent translocase ABCB1; test: P-gp JC-1 efflux blockade concentration-response – Jurkat-DNR cells, flow cytometry, set 2, dose response (AID 504569); format: functional; conditions: read-out: EC50_MICROM_;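 further: potency of pump inhibitors that raise cellular JC-1 green fluorescence up to the nicardipine level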
[6] = molecular target: Nuclear receptor subfamily 5 group A member 2 (Homo sapiens, UniProt O00482); format: functional, cell-based;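 further: HEK293T cells transfected with LRH-1 and a StAR promoter luciferase reporter; potency for inhibitors that lower LRH-1 driven reporter light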
[7] = nonselective StAR promoter luciferase inhibitors – cell-based, luminescence, luciferase reporter, counter-screen for LRH-1 inverse agonist project, dose response (AID 651969); format: functional
Steroidogenic factor 1 = Steroidogenic factor 1 (Homo sapiens, UniProt Q13285); test: Counterscreen for inverse agonists of the liver receptor homolog-1 (LRH-1; NR5A2): Luminescence-based cell-based high throughput dose response assay to identify inverse agonists of the Steroidogenic Factor 1 Nuclear Receptor (SF1; NR5A1).; format: functional
[8] = tested on: Streptococcus sp. 'group A'; test: Streptococcus pyogenes SK(-)GAS viability under kanamycin – luminescence, BacTiterGlo, confirmation, counter-screen for streptokinase expression inhibitor project, dose response (AID 1900); format: functional, organism-based
Prothrombin = Prothrombin (Bos taurus, UniProt P00735); test: thrombin protease inhibitors – biochemical, fluorescence polarization, uHTS hits, dose response (AID 602369); format: functional
cells = format: functional, cell-based; conditions: HEK-CNG
[9] = molecular target: 72 kDa type IV collagenase (Homo sapiens, UniProt P08253); test: Dose Response validation of uHTS RPN11 inhibitor hits using a MMP-2 Fluorescence assay.; format: functional
Galanin receptor type 3 = molecular target: T4, Galanin receptor type 3 (Homo sapiens, UniProt O60755); test: Fluorescence-based cell-based primary high throughput dose response assay to identify antagonists of the Galanin Receptor 3 (GalR3).; format: functional
T4 sequence (O60755 whole entry): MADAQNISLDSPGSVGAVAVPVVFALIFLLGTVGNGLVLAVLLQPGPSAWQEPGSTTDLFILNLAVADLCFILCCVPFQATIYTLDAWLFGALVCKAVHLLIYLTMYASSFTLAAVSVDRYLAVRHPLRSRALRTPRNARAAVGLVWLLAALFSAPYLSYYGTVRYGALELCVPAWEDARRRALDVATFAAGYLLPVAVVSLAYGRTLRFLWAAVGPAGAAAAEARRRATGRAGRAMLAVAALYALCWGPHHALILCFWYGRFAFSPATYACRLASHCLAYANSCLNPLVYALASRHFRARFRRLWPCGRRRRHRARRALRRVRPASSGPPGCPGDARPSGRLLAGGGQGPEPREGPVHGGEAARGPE

Streptococcus = test: GAS UMAA2166 growth inhibition – luminescence, BacTiterGlo, counter-screen for streptokinase expression inhibitor project, dose response (AID 1915); format: functional, organism-based;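 further: potency for reduction of bacterial viability or growth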
Fatty acid synthase [10] = molecular target: T5, Fatty acid synthase (Homo sapiens, UniProt P49327); test: inhibition of human FAS-TE enzyme activity – biochemical, endpoint fluorescence intensity, uHTS hits, dose response (AID 624327); format: functional;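 further: fluorescence from hydrolysis of an O-methyl fluorescein acyl ester substrate by the enzyme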
Fatty acid synthase [11] = molecular target: T5, Fatty acid synthase; test: inhibition of human FAS-TE enzyme activity – biochemical, kinetic fluorescence intensity, dose response (AID 624326); format: functional;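 further: rate of fluorescence rise from hydrolysis of a fluorogenic O-methyl fluorescein ester substrate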
[12] = molecular target: 26S proteasome non-ATPase regulatory subunit 14 (Homo sapiens, UniProt O00487); test: inhibition of proteasome subunit RPN11 – biochemical, fluorescence polarization, uHTS hits, confirmation (AID 602368); format: functional
[13] = molecular target: T6, Small ubiquitin-related modifier 1 (Homo sapiens, UniProt P63165); test: SUMO1 protein-protein binding blockers, potency – biochemical, FRET, dose response (AID 624383); format: functional; conditions: read-out: IC50_Mean
[14] = molecular target: T6, Small ubiquitin-related modifier 1; test: SUMO1 protein interaction blockers, potency – biochemical, fluorescence polarization, uHTS hits, dose response (AID 624382); format: functional; conditions: read-out: IC50_Mean
[15] = molecular target: T7, Ubiquitin-conjugating enzyme E2 N (Homo sapiens, UniProt P61088); format: functional
T7 sequence (P61088 whole entry): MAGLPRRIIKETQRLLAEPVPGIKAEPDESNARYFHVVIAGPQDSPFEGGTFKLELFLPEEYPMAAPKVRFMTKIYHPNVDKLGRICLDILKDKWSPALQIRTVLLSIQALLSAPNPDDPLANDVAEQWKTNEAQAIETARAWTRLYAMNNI

[16] = molecular target: T7, Ubiquitin-conjugating enzyme E2 N; format: functional; remark: listed apart in the source
Bcl-2-related protein A1 = molecular target: T8, Bcl-2-related protein A1 (Mus musculus, UniProt Q07440); format: functional;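 further: confirmatory dose–response counterscreen on Bfl-1, used to check hits from a UBC13 polyubiquitin inhibitor campaign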
T8 sequence (Q07440 whole entry): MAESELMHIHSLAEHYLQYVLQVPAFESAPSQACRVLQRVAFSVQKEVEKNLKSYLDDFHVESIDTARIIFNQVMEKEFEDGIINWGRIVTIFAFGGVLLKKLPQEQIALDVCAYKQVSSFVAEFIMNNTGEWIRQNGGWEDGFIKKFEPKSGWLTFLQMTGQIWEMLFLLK

Large T antigen = Large T antigen (Simian virus 40, UniProt P03070); format: functional, Betapolyomavirus macacae;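 further: Confirmatory-stage PubChem screen for compounds that inhibit SV40 T antigen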
[17] = molecular target: Adenosylmethionine-8-amino-7-oxononanoate aminotransferase (Mycobacterium tuberculosis, UniProt P9WQ81); test: Mycobacterium tuberculosis BioA enzyme inhibitor Measured in Biochemical System Using Plate Reader - 2163-02_Inhibitor_Dose_CherryPick_Activity.; format: functional, Mycobacterium tuberculosis UT205
[18] = molecular target: Serine/threonine-protein phosphatase (Candida dubliniensis (strain CD36 / CBS 7987 / NCPF 3949 / NRRLY-17841) (Yeast), UniProt B9W6M3); test: blockers of CaCl2-induced CDRE-lacZ signaling – S. cerevisiae, luminescence, secondary, dose response (AID 2388); format: functional, cell-based;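 further: yeast reporter cells carrying a calcineurin-responsive lacZ construct stimulated with calcium chloride; luminescent beta-galactosidase reporter signal in whole cells rather than isolated phosphatase activity; potency for inhibition where a drop in reporter signal means calcineurin blockade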
[19] = molecular target: ATP-dependent molecular chaperone HSP82 (Candida albicans (strain WO-1) (Yeast), UniProt C4YTQ8); test: steroid-induced GRE reporter decrease in yeast – S. cerevisiae, luminescence, Hsp90 inhibitor project, dose response (AID 2400); format: functional, cell-based;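 further: beta-galactosidase luminescence from glucocorticoid response element reporter as proxy for Hsp90 function; inhibitor potency where signal loss means Hsp90 inhibition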
[20] = Luminescence Cell-Based Dose Retest to Confirm Inhibitors of Cancer Stem Cells. [Related pubchem assays (depositor defined):AID2717, AID2721]; format: functional; conditions: Homo sapiens
[21] = fluconazole-exposed Candida albicans growth modulators – fluorescence, retest, confirmation (AID 2467); format: functional, cell-based
[22] = NIH-3T3 fibroblast cytotoxicity, dose response, cytotoxicity control, cell-based, fluorescence, Alamar Blue, secondary assay (AID 2327); format: functional;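 further: NIH-3T3 mouse fibroblasts cultured with fluconazole at 8 µg/mL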
[23] = HEK-293T viability loss after treatment – luminescence, T-cell screen hits, cytotoxicity control for TCR NF-kB inhibitor project, dose response (AID 489026); format: functional, cell-based;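 further: cells exposed to compound about 14 hours before the viability readout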
BJ [24] = test: BJ-TERT fibroblast viability loss – cell-based, RAS-independent, luminescence, dose response (AID 1933); format: functional; conditions: Homo sapiens
[25] = molecular target: Photoreceptor-specific nuclear receptor (Homo sapiens, UniProt Q9Y5X4); format: functional, cell-based;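 further: CHO-S cells with Gal4-NCOR and VP16-NR2E3 two-hybrid luciferase reporter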
BJ [26] = test: growth inhibition of engineered Ras-driven BJ cells – cell-based, alamar blue fluorescence, cherrypicked samples, dose response (AID 2631); format: functional; conditions: Homo sapiens;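 further: confirmatory dose-response assay in RAS-dependent BJ fibroblasts engineered with TERT, LT and ST, with cytotoxicity read by fluorescence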
BJ [27] = test: BJ-TERT-LT-ST fibroblast viability loss – cell-based, RAS-independent, luminescence, dose response (AID 1935); format: functional; conditions: Homo sapiens;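 further: BJ fibroblasts immortalized with TERT plus LT and ST oncogenes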
BJ [28] = test: cells; format: functional, cell-based; conditions: Homo sapiens
[29] = DRD fibroblast viability loss – cell-based, non-viral oncogenic, luminescence, dose response (AID 1934); format: functional; conditions: Homo sapiens

T2 sequence (P10145 whole entry): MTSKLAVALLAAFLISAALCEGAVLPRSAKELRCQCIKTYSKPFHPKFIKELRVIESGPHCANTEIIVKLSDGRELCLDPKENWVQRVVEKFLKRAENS
T3 sequence (P08183 whole entry): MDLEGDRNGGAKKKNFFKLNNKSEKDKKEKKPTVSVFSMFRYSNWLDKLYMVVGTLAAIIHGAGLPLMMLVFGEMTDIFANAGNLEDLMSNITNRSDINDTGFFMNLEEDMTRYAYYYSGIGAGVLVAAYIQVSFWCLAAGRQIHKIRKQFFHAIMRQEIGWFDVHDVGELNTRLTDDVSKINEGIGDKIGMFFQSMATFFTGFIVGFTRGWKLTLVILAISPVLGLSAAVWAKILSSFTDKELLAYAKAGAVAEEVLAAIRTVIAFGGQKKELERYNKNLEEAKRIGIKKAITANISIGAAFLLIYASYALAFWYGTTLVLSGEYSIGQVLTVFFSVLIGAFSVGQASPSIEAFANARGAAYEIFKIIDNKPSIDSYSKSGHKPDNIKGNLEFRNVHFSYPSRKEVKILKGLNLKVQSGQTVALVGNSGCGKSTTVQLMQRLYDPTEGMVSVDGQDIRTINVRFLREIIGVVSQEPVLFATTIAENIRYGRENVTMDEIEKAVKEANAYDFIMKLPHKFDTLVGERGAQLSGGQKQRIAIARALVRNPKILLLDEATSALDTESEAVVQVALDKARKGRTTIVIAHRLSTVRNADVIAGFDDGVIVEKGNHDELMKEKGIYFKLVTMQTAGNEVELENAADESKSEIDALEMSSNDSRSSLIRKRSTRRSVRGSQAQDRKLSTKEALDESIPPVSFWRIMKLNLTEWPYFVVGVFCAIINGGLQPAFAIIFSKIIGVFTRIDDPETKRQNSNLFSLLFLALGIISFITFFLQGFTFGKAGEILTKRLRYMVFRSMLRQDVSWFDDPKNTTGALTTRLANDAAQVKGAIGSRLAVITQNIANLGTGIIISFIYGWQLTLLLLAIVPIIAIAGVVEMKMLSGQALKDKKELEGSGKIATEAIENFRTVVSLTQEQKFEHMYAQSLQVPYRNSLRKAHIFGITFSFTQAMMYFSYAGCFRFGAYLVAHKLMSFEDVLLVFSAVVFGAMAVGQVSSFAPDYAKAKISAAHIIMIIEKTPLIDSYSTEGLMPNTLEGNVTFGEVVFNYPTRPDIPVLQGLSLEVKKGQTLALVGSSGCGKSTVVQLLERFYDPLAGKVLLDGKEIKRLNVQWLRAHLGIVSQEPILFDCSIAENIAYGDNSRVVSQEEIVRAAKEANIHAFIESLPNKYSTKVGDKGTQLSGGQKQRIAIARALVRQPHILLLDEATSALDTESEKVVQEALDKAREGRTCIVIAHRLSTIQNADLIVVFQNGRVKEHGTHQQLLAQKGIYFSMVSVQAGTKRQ
T5 sequence (P49327 whole entry): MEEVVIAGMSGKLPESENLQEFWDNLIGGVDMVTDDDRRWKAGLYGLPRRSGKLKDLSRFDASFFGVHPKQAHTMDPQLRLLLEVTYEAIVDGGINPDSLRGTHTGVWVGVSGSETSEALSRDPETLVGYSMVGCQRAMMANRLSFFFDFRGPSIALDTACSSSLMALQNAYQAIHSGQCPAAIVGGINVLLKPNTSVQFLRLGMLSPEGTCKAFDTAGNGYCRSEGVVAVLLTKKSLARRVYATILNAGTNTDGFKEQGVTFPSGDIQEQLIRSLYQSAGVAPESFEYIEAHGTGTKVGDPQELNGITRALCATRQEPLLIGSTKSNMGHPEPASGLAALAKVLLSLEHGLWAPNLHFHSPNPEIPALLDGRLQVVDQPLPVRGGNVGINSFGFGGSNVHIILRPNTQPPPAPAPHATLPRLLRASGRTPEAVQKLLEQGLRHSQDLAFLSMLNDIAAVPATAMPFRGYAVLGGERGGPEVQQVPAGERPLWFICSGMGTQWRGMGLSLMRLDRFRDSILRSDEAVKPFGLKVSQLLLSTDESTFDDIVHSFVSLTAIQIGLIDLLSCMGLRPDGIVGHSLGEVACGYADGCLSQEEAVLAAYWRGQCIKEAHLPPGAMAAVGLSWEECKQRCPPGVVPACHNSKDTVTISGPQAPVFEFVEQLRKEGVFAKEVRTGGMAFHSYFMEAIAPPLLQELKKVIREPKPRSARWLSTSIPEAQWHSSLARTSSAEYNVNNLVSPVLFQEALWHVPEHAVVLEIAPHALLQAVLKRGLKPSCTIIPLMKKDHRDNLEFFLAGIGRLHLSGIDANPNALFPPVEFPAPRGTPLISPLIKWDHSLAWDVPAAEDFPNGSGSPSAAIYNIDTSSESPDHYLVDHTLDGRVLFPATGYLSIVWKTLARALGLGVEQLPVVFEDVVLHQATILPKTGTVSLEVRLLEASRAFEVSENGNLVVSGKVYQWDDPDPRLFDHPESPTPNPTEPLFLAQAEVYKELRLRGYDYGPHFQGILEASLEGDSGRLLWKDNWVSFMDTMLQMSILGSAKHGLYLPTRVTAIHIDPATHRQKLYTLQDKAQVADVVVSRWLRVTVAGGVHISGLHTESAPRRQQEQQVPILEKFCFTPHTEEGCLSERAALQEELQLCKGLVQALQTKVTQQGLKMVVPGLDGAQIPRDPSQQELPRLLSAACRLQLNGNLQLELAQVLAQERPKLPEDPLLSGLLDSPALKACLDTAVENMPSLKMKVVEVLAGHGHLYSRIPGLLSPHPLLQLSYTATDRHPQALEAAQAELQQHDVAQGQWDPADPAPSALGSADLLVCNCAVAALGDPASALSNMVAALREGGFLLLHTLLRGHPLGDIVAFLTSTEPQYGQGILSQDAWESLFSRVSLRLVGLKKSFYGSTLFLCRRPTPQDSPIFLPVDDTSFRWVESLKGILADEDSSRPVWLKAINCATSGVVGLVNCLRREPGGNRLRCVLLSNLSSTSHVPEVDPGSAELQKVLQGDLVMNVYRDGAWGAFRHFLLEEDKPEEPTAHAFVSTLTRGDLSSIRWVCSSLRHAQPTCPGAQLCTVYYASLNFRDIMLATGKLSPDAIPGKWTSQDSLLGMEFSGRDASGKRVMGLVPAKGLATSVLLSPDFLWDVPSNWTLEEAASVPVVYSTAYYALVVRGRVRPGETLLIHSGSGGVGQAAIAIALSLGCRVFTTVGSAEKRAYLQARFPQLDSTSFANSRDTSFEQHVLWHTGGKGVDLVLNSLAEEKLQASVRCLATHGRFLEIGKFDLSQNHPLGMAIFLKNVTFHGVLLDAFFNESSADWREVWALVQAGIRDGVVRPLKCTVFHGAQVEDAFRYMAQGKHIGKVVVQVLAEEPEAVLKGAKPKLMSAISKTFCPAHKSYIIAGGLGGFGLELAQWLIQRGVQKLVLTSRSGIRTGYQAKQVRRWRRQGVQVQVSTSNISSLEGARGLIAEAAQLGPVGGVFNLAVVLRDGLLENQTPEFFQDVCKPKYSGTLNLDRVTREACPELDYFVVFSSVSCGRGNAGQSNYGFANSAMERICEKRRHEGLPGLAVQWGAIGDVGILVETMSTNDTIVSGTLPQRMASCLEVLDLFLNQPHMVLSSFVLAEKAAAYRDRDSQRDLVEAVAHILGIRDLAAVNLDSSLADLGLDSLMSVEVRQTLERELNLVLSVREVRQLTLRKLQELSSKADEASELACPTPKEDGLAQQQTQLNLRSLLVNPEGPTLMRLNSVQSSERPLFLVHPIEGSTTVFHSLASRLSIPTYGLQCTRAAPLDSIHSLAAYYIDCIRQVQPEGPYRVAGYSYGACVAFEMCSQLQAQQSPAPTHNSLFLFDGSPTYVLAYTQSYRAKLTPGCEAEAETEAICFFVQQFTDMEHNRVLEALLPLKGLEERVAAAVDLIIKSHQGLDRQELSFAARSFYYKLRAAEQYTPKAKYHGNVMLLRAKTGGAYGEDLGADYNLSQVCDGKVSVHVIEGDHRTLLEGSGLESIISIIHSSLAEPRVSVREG
Sequence of 26S proteasome non-ATPase regulatory subunit 14 (O00487 whole entry): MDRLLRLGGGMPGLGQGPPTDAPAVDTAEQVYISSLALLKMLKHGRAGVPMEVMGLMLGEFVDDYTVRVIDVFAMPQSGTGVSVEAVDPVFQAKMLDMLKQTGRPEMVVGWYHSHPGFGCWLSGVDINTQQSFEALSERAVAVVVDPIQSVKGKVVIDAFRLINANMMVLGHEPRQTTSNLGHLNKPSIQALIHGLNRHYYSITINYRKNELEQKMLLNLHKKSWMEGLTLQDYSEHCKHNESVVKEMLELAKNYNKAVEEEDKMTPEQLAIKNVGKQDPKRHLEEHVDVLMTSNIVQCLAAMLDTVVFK
T6 sequence (P63165 whole entry): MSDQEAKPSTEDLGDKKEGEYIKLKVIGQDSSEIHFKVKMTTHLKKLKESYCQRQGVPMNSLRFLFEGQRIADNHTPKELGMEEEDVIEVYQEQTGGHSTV
Sequence of 72 kDa type IV collagenase (P08253 whole entry): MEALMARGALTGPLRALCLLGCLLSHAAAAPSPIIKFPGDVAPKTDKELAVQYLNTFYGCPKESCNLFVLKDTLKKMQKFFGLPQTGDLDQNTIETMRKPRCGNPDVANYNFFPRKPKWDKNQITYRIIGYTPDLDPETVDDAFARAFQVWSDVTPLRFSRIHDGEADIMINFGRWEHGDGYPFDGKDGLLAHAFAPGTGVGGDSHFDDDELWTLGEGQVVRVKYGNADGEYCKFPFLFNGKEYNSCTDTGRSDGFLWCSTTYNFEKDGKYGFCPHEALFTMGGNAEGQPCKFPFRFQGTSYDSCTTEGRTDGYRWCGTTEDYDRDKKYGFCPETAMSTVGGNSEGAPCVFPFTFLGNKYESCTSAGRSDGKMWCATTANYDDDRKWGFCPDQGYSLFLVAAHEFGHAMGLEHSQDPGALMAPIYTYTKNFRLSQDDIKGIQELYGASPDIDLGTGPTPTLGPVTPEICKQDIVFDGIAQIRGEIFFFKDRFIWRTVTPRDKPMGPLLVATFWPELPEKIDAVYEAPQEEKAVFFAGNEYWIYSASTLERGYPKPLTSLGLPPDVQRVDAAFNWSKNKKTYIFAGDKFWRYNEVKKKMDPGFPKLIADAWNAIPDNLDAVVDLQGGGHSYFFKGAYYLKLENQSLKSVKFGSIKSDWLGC

COc1ccc(N2C(=O)CC3(CC(c4ccc(F)cc4)=NO3)C2=O)cc1 (stereo not given)
IC50 [1]: 58.3 µM (active)

CCN1CCN(Cc2ccc(NC(=O)c3ccc(C)c(NC(=O)N4CCNC4=O)c3)cc2C(F)(F)F)CC1
IC50 (Interleukin-8 [2]): 56.5 µM (inactive) | IC50 (Interleukin-8 [3]): > 79 µM (inactive)

O=C(c1ccco1)N1CCN(c2cc(Cc3ccccc3)nc3cc(-c4cccc(Cl)c4)nn23)CC1
EC50 [4]: 0.8 µM (active) | EC50 [5]: 4.21 µM (active)

O=C(CSc1n[nH]c(-c2ccccc2)n1)Nc1ccc(F)cc1F
IC50 [6]: 3.99 µM (active) | IC50 [7]: 35.9 µM (inactive) | IC50 (Steroidogenic factor 1): 3.68 µM (active)

COc1cc([N+](=O)[O-])cc(/C=N/NC(=O)c2cncc(Br)c2)c1O
EC50 [8]: 1.85 µM (active) | IC50 (Prothrombin): 39.1 µM (active) | EC50 (cells): > 29.9 µM (inactive) | IC50 [9]: 12.5 µM (active) | IC50 (Galanin receptor type 3): > 9.97 µM (active) | EC50 (Streptococcus): 1.02 µM (active) | IC50 (Fatty acid synthase [10]): 20 µM (active) | IC50 (Fatty acid synthase [11]): 10.2 µM (active) | IC50 [12]: 49.5 µM (active)

CCN(CC)CCOC(=O)c1ccc(N/C=C(/C#N)c2nc(-c3ccc(OC)cc3)cs2)cc1
IC50 [13]: 5.97 µM (active) | IC50 [14]: > 66.6 µM (inactive) | IC50 [1]: 9.94 µM (active) | IC50 [15]: 4.88 µM (active) | IC50 [16]: 4.3 µM (active) | IC50 (Bcl-2-related protein A1): 2.99 µM (active)

Cc1cc(C(=O)c2cccs2)c(N)s1
IC50 (Prothrombin): 28.2 µM (active) | IC50 [9]: 32.7 µM (active) | IC50 (Large T antigen): 51.8 µM (active) | IC50 [12]: 20.5 µM (active)

O=C(N[C@@H]1CC[C@H](CCn2cc(-c3cccnc3)nn2)O[C@@H]1CO)c1ccccc1F
AC50 [17]: 6.17 µM (active)

CC/C(=N/NC(=O)c1ccccc1O)c1c(C)nn(-c2ccccc2)c1O
EC50 [18]: > 180 µM (inactive) | EC50 [19]: > 150 µM (inactive) | AC50 [20]: 3.29 µM (active) | EC50 [21]: 0.114 µM (active) | EC50 [22]: 39 µM (active)

Cc1cccc(NS(=O)(=O)c2ccc(-c3cnc(C4CC4)o3)cc2)c1C
IC50 [23]: 67.5 µM (inactive) | EC50 (BJ [24]): 2.67 µM (active) | IC50 [25]: 6.35 µM (active) | EC50 (BJ [26]): < 0.104 µM (active) | EC50 (BJ [27]): 2.88 µM (inconclusive) | EC50 (BJ [28]): 2.51 µM (active) | EC50 [29]: 2.74 µM (inconclusive)

From ChEMBL document CHEMBL1201862, “PubChem BioAssay data set” (2004)
